Test results reported in PubChem BioAssay AID2060895 (Molecular Pharmacology Branch, DTP, NCI, 2025).
Each block holds one compound with its values, some of them ahead of it.

Test system: PDC 899932-113-R3-J6 complex spheroid viability
Assay: Anticancer human tumor 899932-113-R3-J6-PDC patient-derived melanoma cell line growth inhibition [RAS]
Conditions: for IC50: curve of first compound; for viability, T/C: stronger effect = lower value
Text: RAS pathway inhibitors in Combinations in Complex Spheroids
A high-throughput screen of multi-cell type tumor spheroids was designed to identify active combinations of RAS pathway inhibitors and targeted small molecules. Complex spheroids include a stromal component modeled by human endothelial cells (HUVEC) and fibroblasts modeled by human mesenchymal stem cells (MSCs). The concentration ranges selected for each drug and investigational agent were based upon clinically achievable concentrations if the clinical Cmax of the agent was known.
Compounds. The drugs and investigational agents: abemaciclib (NSC768073), cobimetinib (NSC768068), divarasib (GDC6063, NSC841802), docetaxel (NSC628503), GDC-1971 (RLY-1971, NSC841576), gemcitabine (NSC613327), inavolisib (NSC800729), ipatasertib (NSC767898), KB-0742 (NSC834161), MRTX-1133 (NSC836407), osimertinib (NSC779217), RMC-4630 (NSC839698), RMC-6236 (NSC851965), RMC-6291 (NSC852671), Ro-3306 (NSC812927), sapanisertib (NSC764658), SN-38 (NSC673596), staurosporine (NSC755774), SY5609 (NSC837396), and tovorafenib (DAY101, NSC766906), were obtained from the National Cancer Institute (NCI) Developmental Therapeutics Program Chemical Repository. The FDA-approved anticancer drug set is available from the NCI Developmental Therapeutics Program. […] The stock solutions were prepared in dimethyl sulfoxide (DMSO, Sigma-Aldrich, St. Louis, MO, cat. D2650) at 800-fold the tested concentration and stored at -70 degrees C prior to their use. All drugs and investigational agents were tested over a range starting from a high concentration at or near the clinical Cmax and decreasing in half-log increments. If the clinical Cmax for an agent had not been determined, the highest concentration tested was 10 microM.
Cell Culture. All cells were maintained in an incubator at 37 degrees C and 5% CO2 with 95% humidity. The PDC lines were cultured according to standard operating procedures established by the NCI PDMR. All PDCs were thawed and cultured in Matrigel-coated flasks prepared with a working solution of 1X Ham's F-12 nutrient mix, without supplementation (Invitrogen, Waltham, MA, cat. 11765054), 100 U/mL penicillin-streptomycin (Invitrogen, cat. 15140122), and 2.5% Matrigel (Corning Inc., Corning, NY, cat. 354248) for the first three passages. The 362531-283-R-J2-PDC and 782815-120-R-J1-PDC lines were cultured in 6C/Colon 1B media, which includes advanced DMEM/F-12 (Thermo Fisher Scientific, cat. 12634028), 10 mM HEPES (Thermo Fisher Scientific, cat. 15630080), 1X GlutaMAX supplement (Thermo Fisher Scientific, cat. 35050061), 0.1 mg/mL primocin (InvivoGen, San Diego, CA, cat. ant-pm-2), 10% defined fetal bovine serum, heat inactivated (HyClone Laboratories Inc., Logan, UT, cat. SH30070.03HI), 50% L-WRN conditioned media (ATCC, cat. CRL-3276), 1.25 mM N-Acetyl-L-cysteine (Sigma-Aldrich, cat. A9165), 10 mM nicotinamide (Sigma-Aldrich, cat. N0636), 1X B-27 supplement (Thermo Fisher Scientific, cat. 17504044), 1X N-2 supplement (Thermo Fisher Scientific, cat. 17502048), 50 ng/mL human EGF (Thermo Fisher Scientific, cat. PHG0311), and 10 microM Y-27632 dihydrochloride (Tocris Bioscience, cat. 1254). The K12877-001-R-J1-PDC line was cultured in 6I media, which includes all 6C/Colon 1B media plus 10 ng/mL human FGF-10 (PeproTech, cat. 100-26), 1 ng/mL human FGF-2 (PeproTech, cat. 100-18B), 1 µM prostaglandin E2 (Tocris Bioscience, cat. 2296), […] hydrocortisone (Sigma-Aldrich, cat. H4001), and […] bovine insulin (Sigma-Aldrich, cat. I6634). The K86415-001-R-J1-PDC line was cultured in 6D media, which includes all 6C/Colon 1B media components minus the L-WRN conditioned media. The 485176-168-R4-J1-PDC was cultured in PANC media, which includes all 6C/Colon 1B media plus 100 ng/mL human FGF-10 (PeproTech, cat. 100-26), 500 nM SB-431542 (Selleckchem, cat. S1067), and 10 nM gastrin (Tocris Bioscience, cat. 3006). […]

[1] = second compound 0.0316 µM, first compound 0.0316 µM
[2] = second compound 0.0316 µM, first compound 0.1 µM
[3] = second compound 0.0316 µM, first compound 0.316 µM
[4] = second compound 0.0316 µM, first compound 1 µM
[5] = second compound 0.0316 µM, first compound 3.16 µM
[6] = second compound 0.0316 µM, first compound 10 µM
[7] = second compound 0.1 µM, first compound 0.0316 µM
[8] = second compound 0.1 µM, first compound 0.1 µM
[9] = second compound 0.1 µM, first compound 0.316 µM
[10] = second compound 0.1 µM, first compound 1 µM
[11] = second compound 0.1 µM, first compound 3.16 µM
[12] = second compound 0.1 µM, first compound 10 µM
[13] = second compound 0.316 µM, first compound 0.0316 µM
[14] = second compound 0.316 µM, first compound 0.1 µM
[15] = second compound 0.316 µM, first compound 0.316 µM
[16] = second compound 0.316 µM, first compound 1 µM
[17] = second compound 0.316 µM, first compound 3.16 µM
[18] = second compound 0.316 µM, first compound 10 µM
[19] = second compound 1 µM, first compound 0.0316 µM
[20] = second compound 1 µM, first compound 0.1 µM
[21] = second compound 1 µM, first compound 0.316 µM
[22] = second compound 1 µM, first compound 1 µM
[23] = second compound 1 µM, first compound 3.16 µM
[24] = second compound 1 µM, first compound 10 µM
[25] = second compound 3.16 µM, first compound 0.0316 µM
[26] = second compound 3.16 µM, first compound 0.1 µM
[27] = second compound 3.16 µM, first compound 0.316 µM
[28] = second compound 3.16 µM, first compound 1 µM
[29] = second compound 3.16 µM, first compound 3.16 µM
[30] = second compound 3.16 µM, first compound 10 µM
[31] = second compound 10 µM, first compound 0.0316 µM
[32] = second compound 10 µM, first compound 0.1 µM
[33] = second compound 10 µM, first compound 0.316 µM
[34] = second compound 10 µM, first compound 1 µM
[35] = second compound 10 µM, first compound 3.16 µM
[36] = second compound 10 µM, first compound 10 µM
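Wherever viability, T/C is given: spheroids exposed to agents for seven days before readout; 100% = DMSO vehicle control wells.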

- IC50 (second compound 0.0316 µM): 5.47 µM
- IC50 (second compound 0.1 µM): 5.82 µM
- IC50 (second compound 0.316 µM): 7.53 µM
- IC50 (second compound 1 µM): 7.94 µM
- IC50 (second compound 3.16 µM): 8.55 µM
- IC50 (second compound 10 µM): 6.45 µM
Compound: CC(C)NCC(C(=O)N1CCN(c2ncnc3c2C(C)CC3O)CC1)c1ccc(Cl)cc1 (stereo unspecified) + C#Cc1c(F)ccc2cc(O)cc(-c3ncc4c(N5CC6CCC(C5)N6)nc(OCC56CCCN5CC(F)C6)nc4c3F)c12
- viability, T/C [1]: 99.5%
- viability, T/C [2]: 113%
- viability, T/C [3]: 103%
- viability, T/C [4]: 76.9%
- viability, T/C [5]: 67.4%
- viability, T/C [6]: 34.8%
- viability, T/C [7]: 108%
- viability, T/C [8]: 109%
- viability, T/C [9]: 97.3%
- viability, T/C [10]: 86%
- viability, T/C [11]: 68.9%
- viability, T/C [12]: 34.4%
- viability, T/C [13]: 105%
- viability, T/C [14]: 115%
- viability, T/C [15]: 93.7%
- viability, T/C [16]: 99.6%
- viability, T/C [17]: 72%
- viability, T/C [18]: 42.5%
- viability, T/C [19]: 110%
- viability, T/C [20]: 105%
- viability, T/C [21]: 107%
- viability, T/C [22]: 94.8%
- viability, T/C [23]: 83.1%
- viability, T/C [24]: 41.5%
- viability, T/C [25]: 110%
- viability, T/C [26]: 120%
- viability, T/C [27]: 97.6%
- viability, T/C [28]: 101%
- viability, T/C [29]: 80.7%
- viability, T/C [30]: 44.8%
- viability, T/C [31]: 125%
- viability, T/C [32]: 112%
- viability, T/C [33]: 101%
- viability, T/C [34]: 88.5%
- viability, T/C [35]: 79.6%
- viability, T/C [36]: 33.7%

- IC50 (second compound 0.0316 µM): 0.0903 µM
- IC50 (second compound 0.1 µM): > 0.1 µM
- IC50 (second compound 0.316 µM): > 0.1 µM
- IC50 (second compound 1 µM): > 0.1 µM
- IC50 (second compound 3.16 µM): > 0.1 µM
- IC50 (second compound 10 µM): > 0.1 µM
Compound: CC(C)n1nc(-c2ccc3oc(N)nc3c2)c2c(N)ncnc21 + C#Cc1c(F)ccc2cc(O)cc(-c3ncc4c(N5CC6CCC(C5)N6)nc(OCC56CCCN5CC(F)C6)nc4c3F)c12
- viability, T/C (second compound 0.0316 µM, first compound 0.000316 µM): 104%
- viability, T/C (second compound 0.0316 µM, first compound 0.001 µM): 100%
- viability, T/C (second compound 0.0316 µM, first compound 0.00316 µM): 105%
- viability, T/C (second compound 0.0316 µM, first compound 0.01 µM): 91.8%
- viability, T/C [1]: 68.2%
- viability, T/C [2]: 48.1%
- viability, T/C (second compound 0.1 µM, first compound 0.000316 µM): 114%
- viability, T/C (second compound 0.1 µM, first compound 0.001 µM): 105%
- viability, T/C (second compound 0.1 µM, first compound 0.00316 µM): 95.7%
- viability, T/C (second compound 0.1 µM, first compound 0.01 µM): 100%
- viability, T/C [7]: 73.4%
- viability, T/C [8]: 52.5%
- viability, T/C (second compound 0.316 µM, first compound 0.000316 µM): 103%
- viability, T/C (second compound 0.316 µM, first compound 0.001 µM): 97.6%
- viability, T/C (second compound 0.316 µM, first compound 0.00316 µM): 115%
- viability, T/C (second compound 0.316 µM, first compound 0.01 µM): 100%
- viability, T/C [13]: 76.4%
- viability, T/C [14]: 50%
- viability, T/C (second compound 1 µM, first compound 0.000316 µM): 104%
- viability, T/C (second compound 1 µM, first compound 0.001 µM): 104%
- viability, T/C (second compound 1 µM, first compound 0.00316 µM): 110%
- viability, T/C (second compound 1 µM, first compound 0.01 µM): 96.5%
- viability, T/C [19]: 75%
- viability, T/C [20]: 52.4%
- viability, T/C (second compound 3.16 µM, first compound 0.000316 µM): 116%
- viability, T/C (second compound 3.16 µM, first compound 0.001 µM): 128%
- viability, T/C (second compound 3.16 µM, first compound 0.00316 µM): 118%
- viability, T/C (second compound 3.16 µM, first compound 0.01 µM): 112%
- viability, T/C [25]: 85.9%
- viability, T/C [26]: 51.6%
- viability, T/C (second compound 10 µM, first compound 0.000316 µM): 115%
- viability, T/C (second compound 10 µM, first compound 0.001 µM): 110%
- viability, T/C (second compound 10 µM, first compound 0.00316 µM): 123%
- viability, T/C (second compound 10 µM, first compound 0.01 µM): 115%
- viability, T/C [31]: 85.8%
- viability, T/C [32]: 50.7%

- IC50 (second compound 0.0316 µM): 6.59 µM
- IC50 (second compound 0.1 µM): 6.77 µM
- IC50 (second compound 0.316 µM): 6.87 µM
- IC50 (second compound 1 µM): 7.39 µM
- IC50 (second compound 3.16 µM): 7.73 µM
- IC50 (second compound 10 µM): 6.2 µM
Compound: C[C@@H](NC(=O)c1ncnc(N)c1Cl)c1ncc(C(=O)Nc2cc(C(F)(F)F)c(Cl)cn2)s1 + C#Cc1c(F)ccc2cc(O)cc(-c3ncc4c(N5CC6CCC(C5)N6)nc(OCC56CCCN5CC(F)C6)nc4c3F)c12
- viability, T/C [1]: 120%
- viability, T/C [2]: 151%
- viability, T/C [3]: 149%
- viability, T/C [4]: 150%
- viability, T/C [5]: 99.2%
- viability, T/C [6]: 22.1%
- viability, T/C [7]: 130%
- viability, T/C [8]: 133%
- viability, T/C [9]: 153%
- viability, T/C [10]: 151%
- viability, T/C [11]: 94.5%
- viability, T/C [12]: 27.2%
- viability, T/C [13]: 132%
- viability, T/C [14]: 123%
- viability, T/C [15]: 145%
- viability, T/C [16]: 140%
- viability, T/C [17]: 94.2%
- viability, T/C [18]: 28.7%
- viability, T/C [19]: 138%
- viability, T/C [20]: 139%
- viability, T/C [21]: 158%
- viability, T/C [22]: 151%
- viability, T/C [23]: 99.2%
- viability, T/C [24]: 32.5%
- viability, T/C [25]: 124%
- viability, T/C [26]: 150%
- viability, T/C [27]: 155%
- viability, T/C [28]: 172%
- viability, T/C [29]: 117%
- viability, T/C [30]: 30.7%
- viability, T/C [31]: 136%
- viability, T/C [32]: 145%
- viability, T/C [33]: 154%
- viability, T/C [34]: 166%
- viability, T/C [35]: 91.6%
- viability, T/C [36]: 20.5%
